This assay has as its system MCH receptors. Put plainly: MCH receptor activity class (method not given). As to conditions: class by percent of control at 10^−7 M or IC50.

`COc1cccc([C@@H](C)NC(=O)[C@H]2CC[C@@H](Nc3nc(C)cc(N(C)C)n3)CC2)c1` [compound 2796, cis-4-{[4-(dimethylamino)-6-methylpyrimidin-2-yl]amino}-N-[(1R)-1-(3-methoxyphenyl)ethyl]cyclohexanecarboxamide]: the class is listed as 2 (Class 2: The value of percent of control at 10^−7 M was from 40% to 60% or the value of IC′50 was from 50 nM to 200 nM.).

As for `Cc1cc(N(C)C)nc(N[C@H]2CC[C@@H](C(=O)N[C@@H](C)c3ccc(Cl)cc3)CC2)n1` [compound 2797, cis-N-[(1S)-1-(4-chlorophenyl)ethyl]-4-{[4-(dimethylamino)-6-methylpyrimidin-2-yl]amino}cyclohexanecarboxamide], the class is 1 (Class 1: The value of percent of control at 10^−7 M was less than 40% or the value of IC50 was less than 50 nM.).

Take `Cc1cc(N(C)C)nc(N[C@H]2CC[C@@H](C(=O)NCc3ccccc3)CC2)n1` [compound 2798, cis-N-benzyl-4-{[4-(dimethylamino)-6-methylpyrimidin-2-yl]amino}cyclohexanecarboxamide]: the class was 2 (Class 2: The value of percent of control at 10^−7 M was from 40% to 60% or the value of IC′50 was from 50 nM to 200 nM.).

Turning to `Cc1cc(N(C)C)nc(N[C@H]2CC[C@@H](C(=O)NCc3ccc(F)cc3)CC2)n1` [compound 2799, cis-4-{[4-(dimethylamino)-6-methylpyrimidin-2-yl]amino}-N-(4-fluorobenzyl)cyclohexanecarboxamide], the class is 2 (Class 2: The value of percent of control at 10^−7 M was from 40% to 60% or the value of IC′50 was from 50 nM to 200 nM.).

`Cc1cc(N(C)C)nc(N[C@H]2CC[C@@H](C(=O)NCc3ccccc3F)CC2)n1` [compound 2800]: the class was 2 (Class 2: The value of percent of control at 10^−7 M was from 40% to 60% or the value of IC′50 was from 50 nM to 200 nM.).

For the compound `Cc1cc(N(C)C)nc(N[C@H]2CC[C@@H](C(=O)NCc3ccc(F)c(F)c3)CC2)n1` [compound 2801, cis-N-(3,4-difluorobenzyl)-4-{[4-(dimethylamino)-6-methylpyrimidin-2-yl]amino}cyclohexanecarboxamide], the class was 1 (Class 1: The value of percent of control at 10^−7 M was less than 40% or the value of IC50 was less than 50 nM.).

Regarding `COc1ccc([C@H](C)NC(=O)[C@H]2CC[C@@H](Nc3nc(C)cc(N(C)C)n3)CC2)cc1` [compound 2802, cis-4-{[4-(dimethylamino)-6-methylpyrimidin-2-yl]amino}-N-[(1S)-1-(4-methoxyphenyl)ethyl]cyclohexanecarboxamide], the class was 1 (Class 1: The value of percent of control at 10^−7 M was less than 40% or the value of IC50 was less than 50 nM.).

Regarding `COc1cccc([C@H](C)NC(=O)[C@H]2CC[C@@H](Nc3nc(C)cc(N(C)C)n3)CC2)c1` [compound 2803, cis-4-{[4-(dimethylamino)-6-methylpyrimidin-2-yl]amino}-N-[(1S)-1-(3-methoxyphenyl)ethyl]cyclohexanecarboxamide], the class is 2 (Class 2: The value of percent of control at 10^−7 M was from 40% to 60% or the value of IC′50 was from 50 nM to 200 nM.).

For `Cc1cc(N(C)C)nc(N[C@H]2CC[C@@H](C(=O)N[C@H](C)c3ccc(F)cc3)CC2)n1` [compound 2804], the class was 2 (Class 2: The value of percent of control at 10^−7 M was from 40% to 60% or the value of IC′50 was from 50 nM to 200 nM.).

With `Cc1cc(N(C)C)nc(N[C@H]2CC[C@@H](C(=O)N[C@H](C)c3ccc(Cl)cc3)CC2)n1` [compound 2805, cis-N-[(1R)-1-(4-chlorophenyl)ethyl]-4-{[4-(dimethylamino)-6-methylpyrimidin-2-yl]amino}cyclohexanecarboxamide], the class is on record as 1 (Class 1: The value of percent of control at 10^−7 M was less than 40% or the value of IC50 was less than 50 nM.).

`Cc1cc(N(C)C)nc(N[C@H]2CC[C@@H](C(=O)NCc3cccc(I)c3)CC2)n1` [compound 2806, cis-4-{[4-(dimethylamino)-6-methylpyrimidin-2-yl]amino}-N-(3-iodobenzyl)cyclohexanecarboxamide]: the class is on record as 1 (Class 1: The value of percent of control at 10^−7 M was less than 40% or the value of IC50 was less than 50 nM.).

As for `Cc1cc(N(C)C)nc(N[C@H]2CC[C@@H](C(=O)NCc3ccc(Cl)cc3Cl)CC2)n1` [compound 2807, cis-N-(2,4-dichlorobenzyl)-4-{[4-(dimethylamino)-6-methylpyrimidin-2-yl]amino}cyclohexanecarboxamide], the class is recorded as 1 (Class 1: The value of percent of control at 10^−7 M was less than 40% or the value of IC50 was less than 50 nM.).

Turning to `Cc1cc(N(C)C)nc(N[C@H]2CC[C@@H](C(=O)NCc3cc(Cl)ccc3Cl)CC2)n1` [compound 2808, cis-N-(2,5-dichlorobenzyl)-4-{[4-(dimethylamino)-6-methylpyrimidin-2-yl]amino}cyclohexanecarboxamide], the class is listed as 1 (Class 1: The value of percent of control at 10^−7 M was less than 40% or the value of IC50 was less than 50 nM.).

On to `Cc1ccc(CNC(=O)[C@H]2CC[C@@H](Nc3nc(C)cc(N(C)C)n3)CC2)cc1` [compound 2809, cis-4-{[4-(dimethylamino)-6-methylpyrimidin-2-yl]amino}-N-(4-methylbenzyl)cyclohexanecarboxamide], for which the class is listed as 1 (Class 1: The value of percent of control at 10^−7 M was less than 40% or the value of IC50 was less than 50 nM.).

As to `Cc1cc(N(C)C)nc(N[C@H]2CC[C@@H](C(=O)NCc3cc(Cl)cc(Cl)c3)CC2)n1` [compound 2810, cis-N-(3,5-dichlorobenzyl)-4-{[4-(dimethylamino)-6-methylpyrimidin-2-yl]amino}cyclohexanecarboxamide], the class is listed as 1 (Class 1: The value of percent of control at 10^−7 M was less than 40% or the value of IC50 was less than 50 nM.).

As to `COc1cc(CNC(=O)[C@H]2CC[C@@H](Nc3nc(C)cc(N(C)C)n3)CC2)cc(OC)c1` [compound 2811, cis-N-(3,5-dimethoxybenzyl)-4-{[4-(dimethylamino)-6-methylpyrimidin-2-yl]amino}cyclohexanecarboxamide], the class is on record as 1 (Class 1: The value of percent of control at 10^−7 M was less than 40% or the value of IC50 was less than 50 nM.).

With `Cc1cc(N(C)C)nc(N[C@H]2CC[C@@H](C(=O)NCc3cccc(Cl)c3)CC2)n1` [compound 2812, cis-N-(3-chlorobenzyl)-4-{[4-(dimethylamino)-6-methylpyrimidin-2-yl]amino}cyclohexanecarboxamide], the class is listed as 1 (Class 1: The value of percent of control at 10^−7 M was less than 40% or the value of IC50 was less than 50 nM.).

In the case of `Cc1cc(N(C)C)nc(N[C@H]2CC[C@@H](C(=O)NCc3cccc(C(F)(F)F)c3)CC2)n1` [compound 2813, cis-4-{[4-(dimethylamino)-6-methylpyrimidin-2-yl]amino}-N-[3-(trifluoromethyl)benzyl]cyclohexanecarboxamide], the class is 2 (Class 2: The value of percent of control at 10^−7 M was from 40% to 60% or the value of IC′50 was from 50 nM to 200 nM.).

Turning to `Cc1cc(N(C)C)nc(N[C@H]2CC[C@@H](C(=O)NCc3cc(C(F)(F)F)cc(C(F)(F)F)c3)CC2)n1` [compound 2814, cis-N-[3,5-bis(trifluoromethyl)benzyl]-4-{[4-(dimethylamino)-6-methylpyrimidin-2-yl]amino}cyclohexanecarboxamide], the class is 1 (Class 1: The value of percent of control at 10^−7 M was less than 40% or the value of IC50 was less than 50 nM.).

Take `COc1cccc(CNC(=O)[C@H]2CC[C@@H](Nc3nc(C)cc(N(C)C)n3)CC2)c1` [compound 2815, cis-4-{[4-(dimethylamino)-6-methylpyrimidin-2-yl]amino}-N-(3-methoxybenzyl)cyclohexanecarboxamide]: the class is 1 (Class 1: The value of percent of control at 10^−7 M was less than 40% or the value of IC50 was less than 50 nM.).

For `Cc1cc(N(C)C)nc(N[C@H]2CC[C@@H](C(=O)NCc3ccc(Cl)cc3)CC2)n1` [compound 2816, cis-N-(4-chlorobenzyl)-4-{[4-(dimethylamino)-6-methylpyrimidin-2-yl]amino}cyclohexanecarboxamide], the class is recorded as 1 (Class 1: The value of percent of control at 10^−7 M was less than 40% or the value of IC50 was less than 50 nM.).

On to `Cc1cc(N(C)C)nc(N[C@H]2CC[C@@H](C(=O)NCc3ccc(Cl)c(Cl)c3)CC2)n1` [compound 2817, cis-N-(3,4-dichlorobenzyl)-4-{[4-(dimethylamino)-6-methylpyrimidin-2-yl]amino}cyclohexanecarboxamide], for which the class was 1 (Class 1: The value of percent of control at 10^−7 M was less than 40% or the value of IC50 was less than 50 nM.).

As to `Cc1cc(N(C)C)nc(N[C@H]2CC[C@@H](C(=O)NCc3ccc(F)cc3F)CC2)n1` [compound 2818, cis-N-(2,4-difluorobenzyl)-4-{[4-(dimethylamino)-6-methylpyrimidin-2-yl]amino}cyclohexanecarboxamide], the class is listed as 1 (Class 1: The value of percent of control at 10^−7 M was less than 40% or the value of IC50 was less than 50 nM.).

`Cc1cc(N(C)C)nc(N[C@H]2CC[C@@H](C(=O)NCc3cc(F)ccc3F)CC2)n1` [compound 2819, cis-N-(2,5-difluorobenzyl)-4-{[4-(dimethylamino)-6-methylpyrimidin-2-yl]amino}cyclohexanecarboxamide]: the class was 1 (Class 1: The value of percent of control at 10^−7 M was less than 40% or the value of IC50 was less than 50 nM.).

In the case of `Cc1cc(N(C)C)nc(N[C@H]2CC[C@@H](C(=O)NCc3cccc(F)c3F)CC2)n1` [compound 2820, cis-N-(2,3-difluorobenzyl)-4-{[4-(dimethylamino)-6-methylpyrimidin-2-yl]amino}cyclohexanecarboxamide], the class was 1 (Class 1: The value of percent of control at 10^−7 M was less than 40% or the value of IC50 was less than 50 nM.).

On to `Cc1cc(N(C)C)nc(N[C@H]2CC[C@@H](C(=O)NCc3ccc(Br)cc3F)CC2)n1` [compound 2821, cis-N-(4-bromo-2-fluorobenzyl)-4-{[4-(dimethylamino)-6-methylpyrimidin-2-yl]amino}cyclohexanecarboxamide], for which the class is given as 1 (Class 1: The value of percent of control at 10^−7 M was less than 40% or the value of IC50 was less than 50 nM.).

Source of the values: US20050197350A1, “Novel quinoline, tetrahydroquinazoline, and pyrimidine derivatives and methods of treatment related to the use thereof” (TAISHO PHARMACEUTICAL CO., LTD., priority 2003, published 2005).
